Assay [1] has as its target T1, beta-amyloid 1-40 (20% biotin) fibrils (Homo sapiens, UniProt P05067).
T1 construct: purchased Bachem H-1194; biotinylated H-5914; host or cells: synthetic peptide
Nature of the assay: Scintillation proximity assay (SPA), direct/saturation binding of tritium labeled probe to fibrils. The following applies: immobilized fibrils, identical conditions. The protocol: (§1) B. Insoluble A-beta (1-40) fibril formation: Lyophilized human beta-amyloid 1-40 peptide (Catalog number H-1194, Bachem) was solubilized with HFIP to produce a dry clear film following the process described above for beta-amyloid 1-42. The clear film of beta-amyloid 1-40 was diluted with distilled water to achieve a 6 mg/mL concentration. […] The clear solution was diluted to 1 mg/mL with PBS, pH 7.4 to obtain a final concentration of 1 mg/mL beta-amyloid 1-40, and then incubated at 37° C. on an orbital shaker at 200 RPM for 4 days. A cloudy solution was produced, and the fibril production was confirmed by measuring changes in fluorescence of Thioflavin T, as well as by atomic force microscopy and transmission electron microscopy. Fibrils were used immediately after their production was confirmed.
For SPA and atomic force microscopy (AFM) experiments, preparations of soluble oligomers and fibrils contained 20% biotinylated beta-amyloid 1-42 and 1-40, respectively (H-5642, H-5914, Bachem). […]
For the saturation-binding assay, isotopic dilution of radiolabeled 49b with unlabeled 49b was performed. ^3H-49b was added to 500 uM of unlabeled 49b to a final concentration of 50 μCi/mL ^3H-49b. […] Assays were incubated overnight and counted the following morning. […]
In general terms: SPA uses beads or plates that emit light when radiolabelled molecules are held near them.

For another assay, the target named is T2, beta-amyloid fibrils (Homo sapiens, UniProt P05067).
T2 construct: Lyophilized human beta-amyloid 1-40 peptide (Catalog number H-1194, Bachem); purchased Bachem H-1194; host or cells: synthetic peptide
T2 sequence (P05067 672-711 limits assumed): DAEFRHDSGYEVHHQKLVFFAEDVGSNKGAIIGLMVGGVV
Nature of the assay: Ex vivo fluorescent binding assay, pre-formed fibrils on naive rat brain sections. The conditions noted are these: 50 μM probe, naive rat brain section, fluorescence microscopy. The procedure: as §1, with “Fibrils were used immediately after their production was confirmed.” left out
A 1/100th dilution of the secondary antibody Alexa Fluor 594-goat anti-mouse IgG (Molecular Probes) in PBS was applied onto the slides, and incubated at room temperature for 1.5 hours. […] Microscopic examination and imaging was performed using a Leica wide-field fluorescence microscope using filter cube A (band pass 340-380 nm with a 400 nm dichroic mirror and a long pass 400 nm suppression filter) for 49b, cube E4 (band pass 436 nm with 455 dichroic mirror and a long pass 470 nm suppression filter) for Thioflavin T, and TX2 (band pass 520-600 nm with 595 nm dichroic mirror and 645/75 band pass suppression filter) for 6E10 immunostaining. […]

In assay [2] the test system is beta-amyloid in PDAPP mouse brain sections. Put plainly: Histochemical staining on PDAPP transgenic mouse brain sections. The assay is classed as binding. The procedure:
3-month old and 24-month old PDAPP mouse brains were obtained from Eli Lilly (Indianapolis, Ind.). Fresh frozen 30 micron sections of the brains were fixed in 10% formalin. For 49b, or Thioflavin S staining, 1 mM stock solutions of 49b and Thioflavin S were prepared in 50% ethanol. The probes were diluted to 25 μM in 50% ethanol, and then applied onto the PDAPP brain sections. The slides were incubated in a humid chamber at room temperature for 1 hr. The slides were washed three times with PBS and mounting medium (Molecular Probes) was added. The slides were incubated at least 4-6 hours before imaging. For the carbonate pre-treatment of the brain sections, formalin-fixed sections were incubated with 100 μL of carbonate buffer containing 0.025 M sodium chloride and 0.1 M sodium carbonate for 45 mins at 37° C. The slides were washed three times with PBS, then 49b or Thioflavin S were applied on the slides as described above. Microscopic examination and imaging was performed using a Leica wide-field fluorescence microscope using filter cube A for 49b and cube E4 for Thioflavin S. Co-staining of the probes with 6E10 anti-beta-amyloid antibody in the PDAPP brain sections was described in the ex vivo assay using naïve rats.

Entries after “also recorded” stand apart in the source; their conditions may differ.

T1 sequence (P05067 672-711 limits assumed): as above

For the compound `O=Cc1ccc(-c2oc3ccccc3c2CO)o1` [Compound 49b, 2-(2-formyl-5-furanyl)-3-hydroxymethyl benzofuran], the affinity to fibrils result in assay [1] is “no measurable affinity; also recorded: No demonstrable affinity”. Moreover, the “staining of immobilized fibrils” value on beta-amyloid fibrils was “No staining was observed”. The “staining of brain sections” value in assay [2] (24-month old PDAPP mice, 25 μM probe) is “punctuate staining pattern that co-localized with beta-amyloid immunoreactivity; also recorded: primarily found in the hippocampus and co-localized with Thioflavin S staining”; in assay [2] (young (3-month old) PDAPP mice), “No staining was observed”. Also, the “staining of carbonate pre-treated brain sections” value in assay [2] (24-month old PDAPP, carbonate extraction buffer to remove soluble material) is “did not stain”.
